Measured values from ChEMBL document CHEMBL1134755, “B-ring substituted 5,7-dihydroxyflavonols with high-affinity binding to P-glycoprotein responsible for cell multidrug resistance” (Bioorg Med Chem Lett, 2001).

Columns and labels:
[1] = target: T1, ATP-dependent translocase ABCB1 (Mus musculus, UniProt P21447); test: Percent of maximal quenching fluorescence for binding analysis to nucleotide-binding domain (NBD2) of P-Glycoprotein was determined
[2] = target: T1, ATP-dependent translocase ABCB1; test: Binding affinity to nucleotide-binding domain (NBD2) of P-Glycoprotein

T1 sequence (P21447 whole entry, the tested form may be a part): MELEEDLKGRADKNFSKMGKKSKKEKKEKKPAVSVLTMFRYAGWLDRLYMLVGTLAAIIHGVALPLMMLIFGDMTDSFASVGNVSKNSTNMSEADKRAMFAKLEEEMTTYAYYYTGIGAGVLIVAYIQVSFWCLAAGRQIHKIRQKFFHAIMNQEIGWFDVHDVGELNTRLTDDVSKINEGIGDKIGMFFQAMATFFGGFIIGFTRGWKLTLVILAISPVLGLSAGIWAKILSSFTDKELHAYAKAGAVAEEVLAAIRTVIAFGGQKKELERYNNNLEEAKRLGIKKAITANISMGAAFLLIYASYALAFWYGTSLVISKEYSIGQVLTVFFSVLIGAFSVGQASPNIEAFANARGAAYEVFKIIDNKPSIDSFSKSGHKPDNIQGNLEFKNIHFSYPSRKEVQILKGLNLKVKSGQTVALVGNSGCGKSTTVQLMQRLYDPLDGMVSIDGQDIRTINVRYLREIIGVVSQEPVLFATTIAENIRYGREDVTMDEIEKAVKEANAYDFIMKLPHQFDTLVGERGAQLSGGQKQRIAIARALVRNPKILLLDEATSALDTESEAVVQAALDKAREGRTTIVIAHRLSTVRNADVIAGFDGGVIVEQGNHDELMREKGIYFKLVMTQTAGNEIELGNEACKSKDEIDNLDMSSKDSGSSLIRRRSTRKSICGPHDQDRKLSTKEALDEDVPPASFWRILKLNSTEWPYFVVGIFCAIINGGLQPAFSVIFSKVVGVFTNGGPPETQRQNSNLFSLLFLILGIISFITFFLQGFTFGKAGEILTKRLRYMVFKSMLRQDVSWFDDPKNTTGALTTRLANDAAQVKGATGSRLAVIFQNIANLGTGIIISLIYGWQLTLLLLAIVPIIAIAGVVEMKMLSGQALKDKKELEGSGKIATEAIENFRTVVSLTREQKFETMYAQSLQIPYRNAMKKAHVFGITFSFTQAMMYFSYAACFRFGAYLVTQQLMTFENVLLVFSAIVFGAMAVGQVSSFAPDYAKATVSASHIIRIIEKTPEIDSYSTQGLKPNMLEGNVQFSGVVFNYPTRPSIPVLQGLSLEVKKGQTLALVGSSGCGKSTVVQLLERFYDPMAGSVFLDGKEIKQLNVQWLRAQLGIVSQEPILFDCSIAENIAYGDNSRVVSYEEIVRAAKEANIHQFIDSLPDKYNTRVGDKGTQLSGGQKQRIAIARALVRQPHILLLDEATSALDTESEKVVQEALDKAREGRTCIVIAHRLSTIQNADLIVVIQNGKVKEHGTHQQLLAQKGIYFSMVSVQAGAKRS

SMILES | Delta Fmax [1] [%] | Kd [2] [µM]
O=c1c(O)c(-c2ccc(C(c3ccccc3)c3ccccc3)cc2)oc2cc(O)cc(O)c12 | 84.6 | 2
CCCCCCCCc1ccc(-c2oc3cc(O)cc(O)c3c(=O)c2O)cc1 | 62.1 | 0.057
O=c1c(O)c(-c2ccc(Cl)cc2Cl)oc2cc(O)cc(O)c12 | 85.3 | 4
O=c1c(O)c(-c2ccc(F)cc2)oc2cc(O)cc(O)c12 | 91.6 | 6.8
O=c1c(O)c(-c2ccc(I)cc2)oc2cc(O)cc(O)c12 | 95.5 | 1.06
O=c1c(O)c(-c2ccccc2)oc2cc(O)cc(O)c12 [GALANGIN] | 95 | 5.9
COc1ccc(-c2oc3cc(O)cc(O)c3c(=O)c2O)cc1 [KAEMPFERIDE] | 96.7 | 5
O=c1c(O)c(-c2ccc(O)cc2)oc2cc(O)cc(O)c12 [KAEMPFEROL] | 97.6 | 6.7
